This note sets out measurements from article PMC11680018, “Study of Cytotoxicity of Spiro-Fused [3-Azabicyclo[3.1.0]hexane]oxindoles and Cyclopropa[a]pyrrolizidine-oxindoles Against Tumor Cell Lines” (Pharmaceuticals, 2024).

Experiment [1] deals with human melanoma (Sk-mel-2) cell line. The experiment in a line: Cell motility by scratch test. Conditions: 10 μg/mL, 36 h, serum-free DMEM; nontreated cells 69.5 ± 17.2. The class given is cell-based. Here is the method:
To assess the potential ability of spiro-fused [3-azabicyclo[3.1.0]hexane]oxindoles 4, 11, 12, 18, 24 and cyclopropa[a]pyrrolizidine-2,3′-oxindole 2 to inhibit metastasis associated with cell motility, a scratch test was performed on the human melanoma (Sk-mel-2) cell line. Different fields were analyzed by bright field, and each scratch area was photographed at 0 and 36 h for non-toxic and fast cell visualization. Nontreated Sk-mel-2 cells filled 69.5 ± 17.2, 41.5 ± 5.3, 59.7 ± 8.1, 49.3 ± 5.3, 43.0 ± 12.6, 26.1 ± 2.5 and 55.9 ± 8.6% of the scratched strip while under treatment with spiro-fused oxindole derivatives 2, 4, 11, 12, 18 and 24 cells, respectively.
Cells were seeded at a density of 5 × 10^5 cells per dish onto petri dishes and grown to confluency. A 200 μL pipette tip was used to make scratch wounds and detached cells were removed after that by washing with phosphate-buffered saline. Culture media was replaced with serum-free DMEM in order to inhibit cell proliferation. Compounds to be screened were added at a dose of 10 μg/mL to the cultures and incubated for 36 h. Different fields were analyzed by bright field, and each scratch area was photographed at 0 and 36 h. Images were captured using an Axio Observer Z1 confocal microscope (Carl Zeiss MicroImaging GmbH, Jena, Germany). The percent of wound closure in five randomly chosen fields was calculated with ImageJ software, 1.52v.

Experiment [2] relates to K562 cells. As to the kind of experiment: Cell cycle analysis by flow cytometry. The class given is cell-based, human. Conditions: 24 h; for K562 cells in SubG1 phase: control 4.5 ± 0.9; for K562 cells in G2/M phase: control 23.1 ± 1.7; for K562 cells in S phase: control 31.9 ± 1.0; for K562 cells in G0/G1 phase: control 40.5 ± 1.3; for Total percentage of K562 cells in the SubG1 and G0/G1 phases: control 45.0%. From the text:
Since growth inhibition may be a result of cell cycle arrest at a particular point, the specific antiproliferative activity of several cycloadducts was further evaluated by flow cytometry to study their impact on the progression of the cell cycle in K562 cells. The assay utilizes propidium iodide-based staining of DNA content to distinguish and measure the accumulation of cells in each cell cycle phase (SubG, G0/G1, S and G2/M).
The distribution of K562 cells in the G0/G1-, S- and G2/M-phases of the cell cycle was obtained by quantification of DNA content using flow cytometry in DAPI-stained cells. Briefly, cells were seeded at a density of 5 × 10^4 cells per well in 24-well plates. […] After incubation with drugs, the cells were harvested by pipetting. This was followed by treatment with 0.2 mg/mL saponin (Fluka, Waltham, MA, USA) and 0.05 mg/mL DAPI (Thermo scientific, Rockford, IL, USA). After washing, the samples were analyzed using a standard flow cytometer (BD FACSCanto II, Becton Dickinson, San Jose, CA, USA). A total of 10,000 events were acquired for the samples. Data processing was performed using the BD FACSDiva 9.0 software.

“And” between values parts separate entries of the source, which are not always exact repeats. Identical values can stand only once.

For `CSCCC1NC2(C(=O)Nc3ccccc32)C2(c3ccccc3)C(c3ccccc3)C12c1ccccc1` (centres unmarked) [Compound 24], in experiment [1], the “Part of the scratched strip filled by Sk-mel-2 cells” value (“Part of the scratched strip filled” below) amounted to 55.9 ± 8.6%.
Consider `COC(=O)C1C2(c3ccccc3)C(Cc3ccc(O)cc3)NC3(C(=O)Nc4ccccc43)C12c1ccccc1` (centres unmarked) [Compound 17], for which, in experiment [2] (5 μg/mL), the “K562 cells in SubG1 phase” value was 2.5 ± 0.3%, the “K562 cells in G2/M phase” value came to 16.7 ± 1.0%, the “K562 cells in S phase” value is recorded as 25.1 ± 0.4% and the “K562 cells in G0/G1 phase” value is given as 55.6 ± 0.3%. Besides, in experiment [2] (10 μg/mL), the “K562 cells in SubG1 phase” value came out at 5.3 ± 0.4%, the “K562 cells in G2/M phase” value is listed as 8.8 ± 0.4%, the “K562 cells in S phase” value was 14.3 ± 0.1% and the “K562 cells in G0/G1 phase” value was found to be 71.5 ± 0.5%. The “Total percentage of K562 cells in the SubG1 and G0/G1 phases” value (shortened to “Total percentage of K562 cells”) in experiment [2] (10 μg/mL) was 74.0–77.5%. In addition, in experiment [2] (20 μg/mL), the “K562 cells in SubG1 phase” value came out at 1.8 ± 0.2%, the “K562 cells in G2/M phase” value is recorded as 7.2 ± 0.3%, the “K562 cells in S phase” value worked out at 16.4 ± 0.5% and the “K562 cells in G0/G1 phase” value was 74.5 ± 0.8%.
As to `CC(C)C1NC2(C(=O)Nc3ccccc32)C2(c3ccccc3)C(c3ccccc3)C12c1ccccc1` (centres unmarked) [Compound 8], in experiment [2] (5 μg/mL), the “K562 cells in SubG1 phase” value worked out at 2.1 ± 0.1%, the “K562 cells in G2/M phase” value is on record as 9.2 ± 0.3%, the “K562 cells in S phase” value was found to be 25.7 ± 0.1% and the “K562 cells in G0/G1 phase” value amounted to 63.1 ± 0.4%. In experiment [2] (10 μg/mL), the “K562 cells in SubG1 phase” value was determined as 4.1 ± 0.2%; the “K562 cells in G2/M phase” value was 5.9 ± 0.2%; the “K562 cells in S phase” value was 16.6 ± 0.2%; the “K562 cells in G0/G1 phase” value is 73.5% and 73.5 ± 0.5%. For the same molecule, the “Total percentage of K562 cells” value in experiment [2] (10 μg/mL) is given as 74.0–77.5%. Moreover, in experiment [2] (20 μg/mL), the “K562 cells in SubG1 phase” value came to 3.6 ± 0.2%, the “K562 cells in G2/M phase” value is on record as 7.1 ± 0.1%, the “K562 cells in S phase” value was 17.0 ± 0.2% and the “K562 cells in G0/G1 phase” value worked out at 72.4 ± 0.2%.
For the molecule `O=C1Nc2ccc([N+](=O)[O-])cc2C12N1CCCC1C1(c3ccccc3)C(c3ccccc3)C12c1ccccc1` (centres unmarked) [Compound 2], in experiment [2] (5 μg/mL), the “K562 cells in SubG1 phase” value is reported as 5.3 ± 0.3%, the “K562 cells in G2/M phase” value worked out at 17.4 ± 0.4%, the “K562 cells in S phase” value is given as 29.5 ± 0.6% and the “K562 cells in G0/G1 phase” value amounted to 47.7 ± 0.5%. Besides, in experiment [2] (10 μg/mL), the “K562 cells in SubG1 phase” value was 7.7% and 7.7 ± 0.4%; the “K562 cells in G2/M phase” value is reported as 7.8 ± 0.3%; the “K562 cells in S phase” value is on record as 15.6 ± 0.4%; the “K562 cells in G0/G1 phase” value came to 68.8 ± 0.5%. Further, the “Total percentage of K562 cells” value in experiment [2] (10 μg/mL) was 74.0–77.5%. Also, in experiment [2] (20 μg/mL), the “K562 cells in SubG1 phase” value is listed as 5.8 ± 0.3%, the “K562 cells in G2/M phase” value came to 7.3 ± 0.2%, the “K562 cells in S phase” value is given as 14.5 ± 0.2% and the “K562 cells in G0/G1 phase” value worked out at 72.5 ± 0.5%. Moreover, the “Part of the scratched strip filled” value in experiment [1] worked out at 41.5 ± 5.3%.
`CC[C@H](C)C1NC2(C(=O)Nc3ccccc32)C2(c3ccccc3)C(C(=O)OC)C12c1ccccc1` (some centres unmarked) [Compound 4]: in experiment [2] (5 μg/mL), the “K562 cells in SubG1 phase” value was found to be 4.3 ± 0.2%, the “K562 cells in G2/M phase” value worked out at 16.5 ± 0.2%, the “K562 cells in S phase” value stood at 26.6 ± 0.7% and the “K562 cells in G0/G1 phase” value is reported as 52.6 ± 0.7%. In experiment [2] (10 μg/mL), the “K562 cells in SubG1 phase” value is listed as 4.8 ± 0.5%, the “K562 cells in G2/M phase” value stood at 11.9 ± 0.6%, the “K562 cells in S phase” value is 26.4 ± 0.3% and the “K562 cells in G0/G1 phase” value is 56.9 ± 0.6%. For the same molecule, in experiment [2] (20 μg/mL), the “K562 cells in SubG1 phase” value came out at 4.9 ± 0.2%, the “K562 cells in G2/M phase” value was 6.9 ± 0.4%, the “K562 cells in S phase” value worked out at 17.4 ± 0.4% and the “K562 cells in G0/G1 phase” value was determined as 71.2 ± 0.4%. Also, the “Part of the scratched strip filled” value in experiment [1] was determined as 59.7 ± 8.1%.
On to `NC(=O)CC1NC2(C(=O)Nc3ccccc32)C2(c3ccccc3)C(c3ccccc3)C12c1ccccc1` (centres unmarked) [Compound 18], for which, in experiment [2] (5 μg/mL), the “K562 cells in SubG1 phase” value worked out at 3.2 ± 0.1%, the “K562 cells in G2/M phase” value turned out to be 14.4 ± 0.5%, the “K562 cells in S phase” value was found to be 31.4 ± 0.1% and the “K562 cells in G0/G1 phase” value is 51.0 ± 0.7%. In addition, in experiment [2] (10 μg/mL), the “K562 cells in SubG1 phase” value was determined as 3.9 ± 0.2%, the “K562 cells in G2/M phase” value was 7.0 ± 0.4%, the “K562 cells in S phase” value was 19.0 ± 0.6% and the “K562 cells in G0/G1 phase” value is given as 70.1 ± 0.5%. Moreover, in experiment [2] (10 μg/mL), the “Total percentage of K562 cells” value was 74.0–77.5%. In addition, in experiment [2] (20 μg/mL), the “K562 cells in SubG1 phase” value turned out to be 3.6 ± 0.1%, the “K562 cells in G2/M phase” value is recorded as 8.6 ± 0.3%, the “K562 cells in S phase” value is recorded as 22.8 ± 0.4% and the “K562 cells in G0/G1 phase” value turned out to be 65.0 ± 0.4%. In addition, the “Part of the scratched strip filled” value in experiment [1] is 26.1 ± 2.5%.
